We go through one sequence from paper PMC5874133 (Science immunology, 2018).

This experiment relates to ZnT8_186–194-reactive CD8^+ T-cell clones. The format is cell-based, human. The settings on record: MMr co-staining (Fig. 7D) and in-vitro recall (Fig. 7E); clones D222D 2, D349D 178B9, H017N A1, H328C 9C8.

KAANIVLTV [B. stercoris mimotope]: the “ZnT8_186–194-reactive clones cross-recognizing the mimotope” value is 1 of 4.
